{"source": "patent US20080242727A1", "about": "“DIETARY COMPOSITIONS CONTAINING ALPHA AMINO N-BUTYRATE AND METHODS OF ENHANCING LEAN BODY MASS” (priority 2007, published 2008)", "origin": "cited, not measured here", "key": {"erythroid progenitors": {"tested_on": "erythroid progenitors", "conditions": "in vivo or in culture"}, "[1]": {"conditions": "dose of as little as 3 g/day"}, "[2]": {"tested_on": "hearts perfused with buffer", "conditions": "for negative nitrogen balance: buffer with glucose and normal plasma levels of other amino acids, except BCAA"}, "rat liver proteolysis": {"tested_on": "rat liver proteolysis", "conditions": "out of 12 amino acids tested; only at concentrations much higher than physiological"}, "[3]": {"tested_on": "hemidiaphragms from fed or fasted rats", "conditions": "in vitro; for specific activity of muscle proteins (protein synthesis): [14C]lysine, with or without insulin"}, "[4]": {"tested_on": "protein synthesis in skeletal muscle", "conditions": "for protein synthesis in skeletal muscle of food-deprived rats: oral administration, vs saline-treated controls"}}, "data": [{"smiles": "CCC(N)C(=O)O", "note": "(stereo not drawn) [ABA, alpha amino n-butyrate]", "values": [{"measurement": "growth of erythroid progenitors", "setting": "erythroid progenitors", "result": "stimulated the growth of all classes of erythroid progenitors"}]}, {"smiles": "CC(C)(O)CC(=O)O", "note": "[HMB, b-hydroxy b-methylbutyrate]", "values": [{"measurement": "effect on catabolism, lean muscle mass and recuperation", "setting": "[1]", "result": "anti-catabolic, promotes lean muscle mass, and may speed recuperation"}]}, {"smiles": "CC(C)C[C@H](N)C(=O)O", "note": "[Leucine, L-Leucine]", "values": [{"measurement": "negative nitrogen balance", "setting": "[2]", "result": "decreased the negative nitrogen balance"}, {"measurement": "rate of protein synthesis as % of the rate of proteolysis", "setting": "[2]; leucine concentrations giving maximal inhibition of protein degradation", "result": 50, "unit": "%"}, {"measurement": "inhibition of deprivation-induced rat liver proteolysis", "setting": "rat liver proteolysis", "result": "strongest inhibitor"}, {"measurement": "protein degradation", "setting": "[3]", "result": "prohibited protein degradation"}, {"measurement": "specific activity of muscle proteins (protein synthesis)", "setting": "[3]", "result": "increased"}, {"measurement": "protein synthesis / eIF4F formation", "setting": "[4]; independently of increases in serum insulin", "result": "stimulated protein synthesis by enhancing eukaryotic initiation factor (eIF)4F formation"}, {"measurement": "protein synthesis in skeletal muscle of food-deprived rats", "setting": "[4]", "result": "stimulated protein synthesis"}, {"measurement": "muscle synthesis after exercise", "setting": "[4]; oral gavage to rats after exercise", "result": "stimulated muscle synthesis independent of increased plasma insulin"}, {"measurement": "glucocorticoid-induced decreases in protein synthesis and mRNA translation", "setting": "[4]; oral, rats", "result": "restored"}]}, {"smiles": "CC[C@H](C)[C@H](N)C(=O)O", "note": "[isoleucine]", "values": [{"measurement": "negative nitrogen balance", "setting": "[2]", "result": "not"}, {"measurement": "specific activity of muscle proteins (protein synthesis)", "setting": "[3]", "result": "inhibitory effects"}, {"measurement": "protein synthesis in skeletal muscle of food-deprived rats", "setting": "[4]", "result": "ineffective"}]}, {"smiles": "CC(C)[C@H](N)C(=O)O", "note": "[valine]", "values": [{"measurement": "negative nitrogen balance", "setting": "[2]", "result": "not"}, {"measurement": "specific activity of muscle proteins (protein synthesis)", "setting": "[3]", "result": "no effect"}, {"measurement": "protein synthesis in skeletal muscle of food-deprived rats", "setting": "[4]", "result": "ineffective"}]}]}
